# Values quoted from earlier work as cited in patent US8133524B1, “Food composition for hemophagous insects” (Tokitae LLC, priority 2010, dated 2012).
# “Also recorded” adds a separate entry of the source.
# Tested on: Aedes aegypti mosquitoes
# Conditions: mosquitoes fed with human red blood cells or blood
structure (smiles),measurement,value
CC[C@H](C)[C@H](N)C(=O)O [isoleucine],effect of isoleucine supplementation on egg production / egg-laying,enhanced egg production rate; also recorded: enhanced egg-laying after blood feeding
